Experimental data published in US5364871A, “New thiazole derivatives, and pharmaceutical composition comprising the same” (Fujisawa Pharmaceutical Co., Ltd., priority 1989, dated 1994).

Assays:
Gastric secretion [1] = assay: Test A: Gastric secretion in Heidenhain pouch dogs; type: in vivo; conditions: total acid output, tetragastrin (10 μg/kg/hr) stimulated; 3.2 mg/kg orally; Beagle dogs
Protocol: Test A (Gastric secretion in Heidenhain pouch dogs):
Beagle dogs, weighing about 8-13 kg, were used for the study on gastric secretion. The animals were surgically provided with a vagally denervated Heidenhain pouch. One month or more later, the dogs were fasted overnight. Gastric secretion was stimulated by an intravenous infusion of tetragastrin (10 μg/kg/hr). Gastric samples were collected at 15 min intervals. After its volume was almost constant, test compound (3.2 mg/kg) suspended in 0.1% methyl cellulose solution was administered orally. Acid concentration was determined by titrating an aliquot to pH 7.0 with 0.1N sodium hydroxide solution using automatic titration (Hiranuma RAT-11 Type). Total acid output was calculated by multiplying total volume of gastric samples by acid concentration, and percentage change of total acid output was calculated by comparing with predosing value of test compound.

Gastric secretion [2] = assay: Test C: Gastric secretion from lumen perfused stomach in anesthetized rats; type: in vivo, Male Sprague-Dawley rats; conditions: maximal inhibition of acid output, histamine (3 mg/kg/hr) stimulated, 1 mg/kg intravenously
Protocol: Test C (Gastric secretion from lumen perfused stomach
Male Sprague-Dawley rats weighing about 250 g were used. Rats were deprived of food but allowed free access to water for 24 hours. The animals were anesthetized with 1.25 g/kg urethane intraperitoneally. The abdomen was opened and the gastric lumen was perfured with saline throughout the experiment. The perfusate was titrated by an antotitrator with 25 mM sodium hydroxide as a titrant. Gastric secretion was stimulated by intravenous infusion with histamine (3 mg/kg/hr). After reaching plateau, test compound (1 mg/kg) was given intravenously. Drug effect was expressed as maximal inhibition by acid output.

stress ulcer = assay: Test B: Inhibition of stress ulcer; type: in vivo, male Sprague-Dawley rats; conditions: area of ulcers, restraint and water immersion 7 hours; 32 mg/kg orally; rats
Protocol: Test B (Inhibition of stress ulcer):
Five male Sprague-Dawley rats, aged 7 weeks and weighing about 200 g were used per group for the study on stress ulcer after the fast for 24 hours. Each animal was immobilized in a restrain cage and immersed to a level of the xiphoid in a water bath kept 22° C. Each of the test compounds (32 mg/kg) suspended in 0.1% methylcellulose solution was administered orally just before the immobilization. Seven hours later, the animals were sacrificed and their stomachs were removed. The stomach was then fixed with 2% formalin. The area of ulcers was measured for each animal, and percentage of inhibition was calculated by comparing the mean area of ulcers (mm^2) in the test animals with that in the control animals.

[3] = tested on: Helicobacter pyloridis 8008; assay: Test D: Anti-microbial activity (agar dilution method); type: cell-based; conditions: 72 h, Brucella agar plus 5% lysed horse blood, 37° C., 3 days, 10% CO2
Protocol: Test D (Anti-microbial activity):
In vitro antimicrobial activity was determined by the agar dilution method. Test strain was precultured in Brucella broth containing 5% horse serum at 37° C. for 3 days 10^4 cfu were inoculated with a multipoint replicater onto Brucella agar plus 5% lysed horse blood plate containing serial 2-fold dilutions of each drug at 37° C. for 3 days. Incubation was carried out in an atmosphere of 10% CO2. MIC was read after incubation as the lowest drug concentration that inhibited macroscopic colonial growth.

HCl-aspirin ulcer = assay: Test E: Inhibition of HCl-aspirin ulcer; type: in vivo, male Sprague-Dawley rats; conditions: length of ulcers; 32 mg/kg orally 30 minutes before aspirin (200 mg/kg in 0.2N HCl); rats
Protocol: Test E (Inhibition of HCl-aspirin ulcer):
Seven male Sprague-Dawley rats, aged 6 weeks and weighing about 200 g were used per group for the study on HCl-aspirin ulcer after the fast for 24 hours. Each of the test compounds (32 mg/kg) suspended in 0.1% methylcellulose solution was administered orally 30 minutes before aspirin administration. Aspirin, suspended in 0.1% methylcellulose solution containing 0.2N HCl, was administered orally at a dose of 200 mg/kg/10 ml. One hour later, the animals were sacrificed and their stomachs were removed. The stomach was then fixed with 2% formalin. The length of ulcers was measured for each animal, and percentage of inhibition was calculated by comparing the mean length of ulcers (mm) in the test animals with that in the control animals.

For CC(=O)NCc1cccc(-c2csc(N=C(N)N)n2)n1 [(a)], the “Inhibition (%)” value (Gastric secretion [1]) was 95%.

With NC(=O)NCc1cccc(-c2csc(N=C(N)N)n2)n1 [(b)] the “Inhibition (%)” value (Gastric secretion [2]) was 98%.

In the case of NC(=O)NCc1nc(-c2csc(N=C(N)N)n2)cs1 [(c)], the “Inhibition (%)” value (Gastric secretion [2]) is reported as 97%.

For CCOC(=O)c1nc(-c2csc(N=C(N)N)n2)cs1 [(d)], the “Inhibition (%)” value (stress ulcer) was 93.9%.

For CCCCNC(N)=Nc1nc(-c2cccc(CNC(C)=O)n2)cs1 [(e)], the MIC [3] was 0.78 µg/mL and the “Inhibition (%)” value (HCl-aspirin ulcer) was 98.1%.
